Assay results: patent publication US10844049B2, “GLP-1R agonists and uses thereof” (QILU REGOR THERAPEUTICS INC., priority 2018, dated 2020)

Tests used:
GLP1R [1] = molecular target: T1, GLP1R (Homo sapiens, UniProt P43220); test: GLP1R cAMP HTRF assay, HEK293/GLP-1R/CRE/Luc (HEK293T cells); type: cell-based; settings: read-out: EC50
In short: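 cAMP accumulation via HTRF after 30 min, 37 °C exposure of 1000 receptor-expressing cells/well to compound (0.5% DMSO final) in IBMX (500 μM)/0.1% BSA DPBS.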

GLP1R [2] = molecular target: T1, GLP1R; test: β-Arrestin-mediated GLP1R internalization assay (PathHunter engineered U2OS cells); type: cell-based; design: host or cells: PathHunter engineered U2OS cells; settings: averaged Bmax, percentage of control GLP-1 (7-37), highest concentration tested
Source text: A similar assay can also be used to assess the extent of signal attenuation due to GLP-1R internalization (the β-Arrestin Internalization Assay). In this assay, activated GLP1R Internalization cells were engineered to co-express an untagged GLP1R, Enzyme Acceptor (EA) tagged β-Arrestin, and a ProLink™ (PK) tag localized to the endosomes. Activation of the GLP1R induces β-Arrestin recruitment, which leads to internalization of the Receptor/Arrestin-EA complex in PK-tagged endosomes. This forces complementation of the two β-galactosidase enzyme fragments (EA and PK) to form a functional enzyme that hydrolyzes substrate to generate a chemiluminescent signal. These cells have been modified to prevent long term propagation and expansion using a proprietary compound that has no apparent effect on assay performance.
Specifically, PathHunter engineered U2OS cells from the assay kit (Cat #93-0724E3CP0L) were plated at a density of 2000 cells/20 μL/well in a 384-well white/clear bottom plates (Greiner Cat #781098). Frozen cells were quickly thawed and 10 mL of cell plating medium (provided by the kit) was added to thawed cells. Cells were stored in a 37° C. incubator and kept for approximately 48 hours until ready for the assay.
(§1) Reference and test compounds were dissolved in 100% DMSO. 5× concentration of an agonist was prepared in serum free DMEM (Thermo Cat #11965). 5 μL of this solution was added to 20 μL cell medium in assay plate for a final top concentration of 10 μM. Plates were incubated at 37° C. for 180 min.
(§2) Following 180 min incubation, detection reagents were made up by combining 1 part Galacton Star Substrate with 5 parts Emerald II™ Solution, and 19 parts of PathHunter Cell Assay Buffer, respectively. 12.5 μL detection reagent was added to each well. The plates were then incubated at room temperature for 60 min. Plates were then read on Envision for 0.1 sec/well.
(§3) EC50 determinations were made from agonist dose-response curves analyzed with a curve fitting program using a 4-parameter logistic dose response equation.

GLP1R [3] = molecular target: T1, GLP1R; test: GLP-1R/β-Arrestin recruitment assay (PathHunter eXpress GLP1R CHO-K1 β-Arrestin GPCR Assay); type: cell-based; design: host or cells: PathHunter CHO-K1 GLP1R β-Arrestin cells; settings: averaged Bmax, percentage of control GLP-1 (7-37), highest concentration tested
Source text: GLP-1R agonist activity with respect to β-arrestin recruitment can be determined with a cell-based functional assay using PathHuntcr eXpress GLP1R CHO-K1 β-Arrestin GPCR Assay kit (DiscovcrX Cat #93-0300E2CP0M).
The PathHunter β-Arrestin GPCR assay technology utilizes a β-galactosidase (β-gal) enzyme that is split into two fragments, the smaller Enzyme Donor (ED) and the larger Enzyme Acceptor (EA). These fragments can be fused to two proteins that may interact with each other, such as EA-β-Arrestin and ED-GLP-1R. The fusions can be stably expressed in a test cell line, such as the PathHunter CHO-K1 GLP1R β-Arrestin cells described below.
Independently, these fragment fusions have no β-gal activity; however, in solution or in a living cell, they can be brought together and complement to form an active β-gal enzyme due to the interaction between the fused proteins, thus generating a chemiluminescent signal in the presence of a suitable β-gal substrate.
In this experiment, PathHunter CHO-K1 GLP1R β-Arrestin cells from the assay kit were plated at a density of 1000 or 2000 cells/20 μl/well in a 384-well white/clear bottom plates (Greiner Cat #781098). Frozen cells were quickly thawed and 10 mL of cell plating medium (provided by the kit) was added to thawed cells. Cells were stored in a 37° C. incubator under 5% CO2 and kept for approximately 48 hours until ready to ran the assay.
as §1, with “Plates were then incubated at” for “Plates were incubated at”, “37° C. under 5% CO2 for 90” for “37° C. for 180”, “CO2 for 90 min.” for “C. for 180 min.”
as §2, with “90” for “180”, “temperature in dark” for “temperature”
as §3
Cells were plated at a density of 1000 or 2000 cells/20 μL/well. Frozen cells were quickly thawed and added to 10 mL of cell plating medium. Cells were stored in a 37° C. incubator under 5% CO2 and left for approximately 48 hours until ready to run the assay.
• 1) Reference agonist compound GLP1 (7-37): dissolved with DMSO to make 1 mM stock solutions, aliquoted and stored at −80° C. • 2) Test compounds (such as the compounds of the invention) came solubilized in 100% DMSO.
Prepare 10× concentration of an agonist in serum free DMEM, and add all solutions into the compound plate. 2.5 μL of this solution was added to 20 μL cell medium in assay plate for a final top concentration of 10 μM. Plates were incubated at 37° C. under 5% CO2 for 30 min. An additional 2.5 μL of Buffer was added to the entire plate for agonist mode and incubated at 37° C. for another 90 min.
Following 90 min incubation, detection reagents were made up as described. 12.5 μL was added to all wells. The plates were then incubated at room temperature in dark for 60 min. Plates were then read on Envision for 0.1 sec/well.
Data analysis: GraphPad Prism 6 was used for establishment of progression curve. EC50S or IC50s were determined by 4-parameter logistic dose response equation.

[4] = Monkey oral pharmacokinetic (PK) study, non-naïve Cynomolgus male monkeys; type: in vivo; settings: Dose 2
Description: Appropriate volumes of vehicles (e.g., 2% Tween 80 (v:v) and 0.5% MC (w:v) in saline or 0.5% MC (w:v) in water were then added into the mortar containing the ground compounds, and the mixture was then grinded with a pestle until a homogeneous paste was formed. Additional appropriate volumes of vehicles were added into the mortar containing each compound, and the mixture was grinded further with the pestle until a homogeneous suspension was obtained.
The rest of the vehicle was added to make up the final dosing volume of about 1 mg/mL or 2 mg/mL (i.e., final dosing volume of about 5 mL/kg), and the homogenous suspension was continuously stirred prior to and during the dosing.
Non-naïve Cynomolgus male monkeys (n=3/test article; sourced from Hainan Jingang Biotech Co., Ltd., Nayang Xmtan, Fucheng Town, Qiongshan District, Haikou City, Hainan Province, China); or non-naïve aged, obese, and diabetic male Macaca fascicularis monkeys (n=3/test article, Source: Kunming Biomed International Colony) were used in pre-clinical in vivo studies. All non-naïve Cynomolgus male monkeys were approximately 3 to 5 years old, weighed about 2.5-5 kg, and were within ±20% of the average body weight. All non-naïve aged, obese, and diabetic male Macaca fascicularis monkeys were approximately 12 to 20 years old, weighed about >8-12 kg.
All animals were fasted overnight before dosing, and the food were supplied approximately 4 hours post dose (with free access to water all the time).
Animals were restrained at designated time points for blood sampling. Approximately 500 μL of blood samples was taken via cephalic or saphenous vein into EDTA-K2 tubes. Blood samples were put on wet ice before centrifugation.
For oral administration (PO) of either Dose 1 or Dose 2: blood samples were collected at pre-dose, and at 15 min, 30 min, 1 hr, 2 hr, 4 hr, (6 hr for compounds 19 and 28 with cynomolgus monkeys only), 8 hr, 12 hr, and 24 hr post dose (i.e., 9 or 10 total time points for each compound at each dose).
The blood samples were centrifuged at approximately 2,000-4,000 rpm for about 10-15 minutes at 2-8′C, and each resulting plasma portion was then transferred into an individual tube.
LC-MS/MS methods were developed, and bioanalysis for the test articles in monkey plasma was performed according to the developed LC-MS/MS methods.
Undiluted plasma samples: An aliquot of 20-50 μL plasma sample was mixed with 200 μL of ACN or MeOH containing one of the internal standards (IS, e.g., Diclofenac or Terfenadine). The mixture was then vortexed for about 1-5 min, and centrifuged at about 4,000-5,800 rpm for about 10-15 min. An aliquot of 1 μL supernatant was used for LC-MS/MS analysis.
Pharmacokinetics parameters, including area under the curve (AUC0-t), maximum plasma concentration (Cmax), time to reach maximum plasma concentration (Tmax), oral bioavailability (F %), etc., were calculated using Phoenix software (Version 6.4) and non-compartment model.

[5] = male, cynomolgus monkey, plasma, oral

T1 sequence (P43220 24-463): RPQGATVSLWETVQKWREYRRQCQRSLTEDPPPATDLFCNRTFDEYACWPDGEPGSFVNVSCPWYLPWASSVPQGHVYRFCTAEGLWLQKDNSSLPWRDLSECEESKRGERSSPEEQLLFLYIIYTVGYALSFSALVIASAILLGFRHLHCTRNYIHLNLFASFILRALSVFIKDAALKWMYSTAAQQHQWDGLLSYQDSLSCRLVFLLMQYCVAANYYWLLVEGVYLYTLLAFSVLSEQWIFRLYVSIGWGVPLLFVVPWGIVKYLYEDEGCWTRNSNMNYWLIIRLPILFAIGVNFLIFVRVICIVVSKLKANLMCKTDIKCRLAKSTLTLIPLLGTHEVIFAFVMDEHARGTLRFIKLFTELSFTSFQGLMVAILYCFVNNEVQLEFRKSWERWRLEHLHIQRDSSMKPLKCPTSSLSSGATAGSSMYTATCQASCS

Row | Structure (SMILES) | EC50 (GLP1R [1]) [nM] | Bmax (POC) (GLP1R [2]) | Bmax (POC) (GLP1R [3]) | further results
1 | O=C(O)c1ccc2nc(CN3CC=C(c4cccc(OCc5ccc(C(F)(F)F)cc5)n4)CC3)n(C[C@@H]3CCO3)c2c1 [Compound 46] | ≤ 15 | 27.4 | – | –
2 | N#Cc1ccc(COc2cccc(C3CCN(Cc4nc5ccc(C(=O)O)cc5n4C[C@@H]4CCO4)CC3)n2)c(F)c1 [Compound 418, reference compound] | – | – | – | Tmax [4, 5]: 1.7 h; bioavailability [4, 5]: 8.17%; AUC0-24 h ([4]; oral): 774 Arbitrary units; Cmax ([4]; oral): 232 Arbitrary unit; drop in plasma concentration ([4]; over about 24 hours post oral dosing): about 10 fold
3 | CS(=O)(=O)NC(=O)c1ccc2nc(CN3CC=C(c4cccc(OCc5ccc(Cl)cc5F)n4)CC3)n(C[C@@H]3CCO3)c2c1 [Compound 47, (S)-2-((4-(6-(4-chloro-2-fluorobenzyloxy)pyridin-2-yl)-5,6-dihydropyridin-1(2H)-yl)methyl)-N-(methylsulfonyl)-1-(oxetan-2-ylmethyl)-1 h-benzo[d]imidazole-6-carboxamide] | ≤ 15 | 22.8 | – | –
4 | N#Cc1ccc(COc2cncc(N3CCN(Cc4nc5ccc(C(=O)O)cc5n4C[C@@H]4CCO4)CC3)n2)c(F)c1 [Compound 12, (S)-2-((4-(6-(4-cyano-2-fluorobenzyloxy)pyrazin-2-yl)piperazin-1-yl)methyl)-1-(oxetan-2-ylmethyl)-1 h-benzo[d]imidazole-6-carboxylic acid] | ≤ 15 | – | 9.66 | –
5 | O=C(O)c1ccc2nc(CN3CC=C(c4cccc(OCc5ccc(C(F)(F)F)nc5)n4)CC3)n(C[C@@H]3CCO3)c2c1 [Compound 45, (S)-1-(oxetan-2-ylmethyl)-2-((4-(6-((6-(trifluoromethyl)pyridin-3-yl)methoxy)pyridin-2-yl)-5,6-dihydropyridin-1(2H)-yl)methyl)-1 h-benzo[d]imidazole-6-carboxylic acid] | ≤ 15 | 19.1 | – | –
6 | O=C(O)c1ccc2nc(CN3CCN(c4cccc(NCc5ccc(Cl)cc5F)n4)CC3)n(C[C@@H]3CCO3)c2c1 [Compound 1, (S)-2-((4-(6-(4-chloro-2-fluorobenzylamino)pyridin-2-yl)piperazin-1-yl)methyl)-1-(oxetan-2-ylmethyl)-1 h-benzo[d]imidazole-6-carboxylic acid] | ≤ 15 | – | 2.80 | –
7 | N#Cc1ccc(COc2nccc(N3CCN(Cc4nc5ccc(C(=O)O)cc5n4C[C@@H]4CCO4)CC3)n2)c(F)c1 [Compound 10, (S)-2-((4-(2-((4-cyano-2-fluorobenzyl)oxy)pyrimidin-4-yl)piperazin-1-yl)methyl)-1-(oxetan-2-ylmethyl)-1H-benzo[d]imidazole-6-carboxylic acid] | ≤ 150 | – | 4.48 | –

Further lines, with some results ahead:

Row | EC50 (GLP1R [1]) [nM] | Bmax (POC) (GLP1R [2]) | Bmax (POC) (GLP1R [3]) | Structure (SMILES) | further results
8 | ≤ 15 | 27.03 | – | O=C(O)c1ccc2nc(CN3CCN(c4ccnc(OCc5ccc(Cl)cc5F)n4)CC3)n(C[C@@H]3CCO3)c2c1 [Compound 9, (S)-2-((4-(2-((4-chloro-2-fluorobenzyl)oxy)pyrimidin-4-yl)piperazin-1-yl)methyl)-1-(oxetan-2-ylmethyl)-1H-benzo[d]imidazole-6-carboxylic acid] | –
9 | ≤ 15 | 24.2 | – | Fc1cc(Cl)ccc1COc1cccc(C2=CCN(Cc3nc4ccc(-c5nnn[nH]5)cc4n3C[C@@H]3CCO3)CC2)n1 [Compound 105, (S)-2-((4-(6-(4-chloro-2-fluorobenzyloxy)pyridin-2-yl)-5,6-dihydropyridin-1(2H)-yl)methyl)-1-(oxetan-2-ylmethyl)-6-(1H-tetrazol-5-yl)-1H-benzo[d]imidazole] | –
10 | ≤ 15 | – | 7.16 | O=C(O)c1ccc2nc(CN3CCN(c4cncc(OCc5ccc(Cl)cc5F)n4)CC3)n(C[C@@H]3CCO3)c2c1 [Compound 11, (S)-2-((4-(6-(4-chloro-2-fluorobenzyloxy)pyrazin-2-yl)piperazin-1-yl)methyl)-1-(oxetan-2-ylmethyl)-1 h-benzo[d]imidazole-6-carboxylic acid] | –
